Patent US9757388B2 (Acerus Pharmaceuticals SRL, priority 2011, dated 2017)

Details: drug substance

C[C@]12CC[C@H]3[C@@H](CCC4=CC(=O)CC[C@@]43C)[C@@H]1CC[C@@H]2O [Testosterone, 17β-Hydroxyandrost-4-en-3-one]
Stability in air: powder. It is odourless, and stable in air.
